# Results: ChEMBL document CHEMBL3045718, “Substituted 2-[2-(pyridin-3-yl) phenyl] acetamides and ureas: design, synthesis, and anticonvulsant screening in mice” (Med Chem Res, 2012)
# The source made the active and inactive calls. No cut-off for these calls is given here.
# Experiments:
# Mus musculus [1] = experiment: Anticonvulsant activity in Mus musculus Swiss albino (mouse) assessed as protection against maximal electroshock-induced seizures at 30 mg/kg, ip measured after 4 hr post compound treatment; type: functional, organism-based; set-up: dose 30 mg/kg
# [2] = Neurotoxicity in ip dosed Mus musculus Swiss albino (mouse) assessed as motor impairment measured after 0.5 hr post compound treatment for 1 min by rotarod test; type: toxicity, organism-based; conditions: in vivo
# Mus musculus [3] = experiment: Anticonvulsant activity in ip dosed Mus musculus Swiss albino (mouse) assessed as protection against maximal electroshock-induced seizures measured after 0.5 hr post compound treatment; type: functional
# Mus musculus [4] = experiment: Neurotoxicity in Mus musculus Swiss albino (mouse) assessed as motor impairment at 100 mg/kg, ip measured for 1 min by rotarod test; type: toxicity, organism-based; set-up: dose 100 mg/kg, route intraperitoneal; conditions: in vivo
# Mus musculus [5] = experiment: Anticonvulsant activity in Mus musculus Swiss albino (mouse) assessed as protection against maximal electroshock-induced seizures at 30 mg/kg, ip measured after 0.5 hr post compound treatment; type: functional, organism-based; set-up: dose 30 mg/kg
# Mus musculus [6] = experiment: Neurotoxicity in Mus musculus Swiss albino (mouse) assessed as motor impairment at 600 mg/kg, ip measured for 1 min by rotarod test; type: toxicity, organism-based; set-up: dose 600 mg/kg, route intraperitoneal; conditions: in vivo
# [7] = Protective index, ratio of TD50 for neurotoxicity in Mus musculus Swiss albino (mouse) to ED50 for anticonvulsant activity in Mus musculus Swiss albino (mouse) measured 0.5 hr post compound treatment; type: toxicity, organism-based; conditions: in vivo, read-out: Ratio TD50/ED50
# Mus musculus [8] = experiment: Anticonvulsant activity in Mus musculus Swiss albino (mouse) assessed as protection against maximal electroshock-induced seizures at 300 mg/kg, ip measured after 0.5 hr post compound treatment; type: functional, organism-based; set-up: dose 300 mg/kg
# Mus musculus [9] = experiment: Anticonvulsant activity in Mus musculus Swiss albino (mouse) assessed as protection against maximal electroshock-induced seizures at 300 mg/kg, ip measured after 4 hr post compound treatment; type: functional, organism-based; set-up: dose 300 mg/kg
# Mus musculus [10] = experiment: Anticonvulsant activity in Mus musculus Swiss albino (mouse) assessed as protection against subcutaneous pentylenetetrazol-induced clonic spasms at 300 mg/kg, ip after 4 hr post compound treatment; type: functional, organism-based; set-up: dose 300 mg/kg
# Mus musculus [11] = experiment: Anticonvulsant activity in Mus musculus Swiss albino (mouse) assessed as protection against subcutaneous pentylenetetrazol-induced clonic spasms at 300 mg/kg, ip after 0.5 hr post compound treatment; type: functional, organism-based; set-up: dose 300 mg/kg
# Mus musculus [12] = experiment: Anticonvulsant activity in Mus musculus Swiss albino (mouse) assessed as protection against subcutaneous pentylenetetrazol-induced clonic spasms at 30 mg/kg, ip after 4 hr post compound treatment; type: functional, organism-based; set-up: dose 30 mg/kg
# Mus musculus [13] = experiment: Anticonvulsant activity in Mus musculus Swiss albino (mouse) assessed as protection against subcutaneous pentylenetetrazol-induced clonic spasms at 30 mg/kg, ip after 0.5 hr post compound treatment; type: functional, organism-based; set-up: dose 30 mg/kg
# Mus musculus [14] = experiment: Anticonvulsant activity in ip dosed Mus musculus Swiss albino (mouse) assessed as protection against maximal electroshock-induced seizures measured; type: functional
# [15] = Protective index, ratio of TD50 for neurotoxicity in Mus musculus Swiss albino (mouse) to ED50 for anticonvulsant activity in Mus musculus Swiss albino (mouse); type: toxicity, organism-based; conditions: in vivo, read-out: Ratio TD50/ED50
SMILES,Activity (Mus musculus [1]),Activity (Mus musculus [4]),Activity (Mus musculus [5]),Activity (Mus musculus [6]),Activity (Mus musculus [8]),Activity (Mus musculus [9]),Activity (Mus musculus [10]),Activity (Mus musculus [11]),also measured
NC(=O)Cc1ccccc1-c1cccnc1,Active,Non-toxic,Active,Toxic,,,,,TD50 at 0.5 hr [2]: 215 mg/kg; ED50 (Mus musculus [3]): 8.28 mg/kg; selectivity ratio at 0.5 h [7]: 26
NC(=O)NNC(=O)Cc1ccccc1-c1cccnc1,,Non-toxic,,Toxic,inactive,inactive,inactive,inactive,
CCC1(c2ccccc2)C(=O)NC(=O)NC1=O [PHENOBARBITAL],,Non-toxic,,Toxic,,,,,Activity (Mus musculus [12]): Active; Activity (Mus musculus [13]): Active
O=C1NC(=O)C(c2ccccc2)(c2ccccc2)N1 [PHENYTOIN],Active,Non-toxic,Active,Toxic,,,,,
NC(=O)N1c2ccccc2C=Cc2ccccc21 [CARBAMAZEPINE],Active,Non-toxic,Active,Toxic,,,,,
CN1C(=O)CN=C(c2ccccc2)c2cc(Cl)ccc21 [DIAZEPAM],,Non-toxic,,Toxic,,,,,Activity (Mus musculus [12]): Active; Activity (Mus musculus [13]): Active
O=C1CCCN1C(=O)Cc1ccccc1Nc1ccccc1,,Non-toxic,,Toxic,,,,,ED50 (Mus musculus [14]): 8 mg/kg; selectivity ratio [15]: 87.5
CC(C)(C)NC(=O)NCc1ccccc1-c1cccnc1,,Non-toxic,,Toxic,inactive,inactive,inactive,inactive,
O=C(NCc1ccccc1-c1cccnc1)NC1CCCCC1,,Non-toxic,,Toxic,inactive,inactive,inactive,inactive,
NC(=S)NNC(=O)Cc1ccccc1-c1cccnc1,,Non-toxic,,Toxic,inactive,inactive,inactive,inactive,
